Source: the NIST ThermoML archive (doi:10.1021/je049912x)

Columns and labels:
[1] = 101.33 kPa, Liquid
[2] = xn = mol fraction of the nth substance listed; settings: 101.33 kPa, Liquid

CCCCO [butan-1-ol]
[1]
Settings | mass density [kg/m3] | speed of sound [m/s] | viscosity [mPa·s]
298.15 K | 807.7 | 1238 | 2.564
308.15 K | 800.1 | 1211 | 2

CCCCO [butan-1-ol] + CCc1ccccc1
[2], x2 = 0
Settings | mass density [kg/m3] | speed of sound [m/s] | viscosity [mPa·s]
298.15 K | 807.7 | 1238 | 2.564
308.15 K | 800.1 | 1211 | 2

CCO [ethanol]
[1]
Settings | mass density [kg/m3] | speed of sound [m/s] | viscosity [mPa·s]
298.15 K | 785.5 | 1160 | 1.117
308.15 K | 776.3 | 1112 | 0.935

CCO [ethanol] + CCc1ccccc1
[2], x2 = 0
Settings | mass density [kg/m3] | speed of sound [m/s] | viscosity [mPa·s]
298.15 K | 785.5 | 1160 | 1.117
308.15 K | 776.3 | 1112 | 0.935

CCc1ccccc1 [ethylbenzene]
[1]
Settings | mass density [kg/m3] | speed of sound [m/s] | viscosity [mPa·s]
298.15 K | 862 | 1312 | 0.628
308.15 K | 855.5 | 1276 | 0.553

CCc1ccccc1 [ethylbenzene] + CCCCO
[2]
Settings | mass density, 298.15 K [kg/m3] | mass density, 308.15 K [kg/m3] | speed of sound, 298.15 K [m/s] | speed of sound, 308.15 K [m/s] | viscosity, 298.15 K [mPa·s] | viscosity, 308.15 K [mPa·s]
x1 = 0.1035 | 816.7 | 808.9 | 1246 | 1217 | 1.985 | 1.569
x1 = 0.205 | 821.2 | 815.3 | 1256 | 1223 | 1.565 | 1.253
x1 = 0.3221 | 828.1 | 822 | 1264 | 1229 | 1.236 | –
x1 = 0.365 | 831.1 | 824.5 | 1267 | 1231 | 1.147 | 0.941
x1 = 0.5071 | 839.6 | 832.1 | 1277 | 1239 | 0.916 | 0.765
x1 = 0.6494 | 845.7 | 839.1 | 1288 | 1249 | 0.764 | 0.651
x1 = 0.8136 | 854.5 | 846 | 1301 | 1262 | 0.693 | 0.577
x1 = 0.91 | 858.6 | 852.6 | 1307 | 1268 | 0.649 | 0.566
x1 = 1 | 862 | 855.5 | 1312 | 1276 | 0.628 | 0.553

CCc1ccccc1 [ethylbenzene] + CCCO
[2]
Settings | mass density, 298.15 K [kg/m3] | mass density, 308.15 K [kg/m3] | speed of sound, 298.15 K [m/s] | speed of sound, 308.15 K [m/s] | viscosity, 298.15 K [mPa·s] | viscosity, 308.15 K [mPa·s]
x1 = 0.109 | 811.4 | 803.7 | 1227 | 1194 | 1.543 | 1.226
x1 = 0.1677 | 817.3 | 807.1 | 1233 | 1202 | 1.375 | 1.098
x1 = 0.3777 | 828.5 | 823.5 | 1257 | 1224 | 0.976 | 0.809
x1 = 0.5006 | 837.9 | 833.1 | 1266 | 1233 | 0.839 | 0.702
x1 = 0.6429 | 845.1 | 839 | 1277 | 1245 | 0.712 | 0.616
x1 = 0.8074 | 853.3 | 844.3 | 1287 | 1258 | 0.638 | 0.562
x1 = 0.8951 | 857 | 850 | 1299 | 1264 | 0.606 | 0.542
x1 = 1 | 862 | 855.5 | 1312 | 1276 | 0.628 | 0.553

CCc1ccccc1 [ethylbenzene] + CCO
[2]
Settings | mass density, 298.15 K [kg/m3] | mass density, 308.15 K [kg/m3] | speed of sound, 298.15 K [m/s] | speed of sound, 308.15 K [m/s] | viscosity, 298.15 K [mPa·s] | viscosity, 308.15 K [mPa·s]
x1 = 0.0712 | 795 | 789.6 | 1170 | 1133 | 1.026 | 0.856
x1 = 0.1551 | 807.2 | 801.6 | 1185 | 1155 | 0.947 | 0.788
x1 = 0.2404 | 817.6 | 811.7 | 1203 | 1173 | 0.864 | 0.719
x1 = 0.352 | 827 | 820 | 1228 | 1195 | 0.789 | 0.656
x1 = 0.4053 | 836 | 823.2 | 1235 | 1203 | 0.764 | 0.629
x1 = 0.553 | 842.3 | 835.8 | 1261 | 1223 | 0.684 | 0.587
x1 = 0.7382 | 853.6 | 842.8 | 1278 | 1250 | 0.639 | 0.548
x1 = 0.8805 | 858.5 | 851.2 | 1291 | 1266 | 0.623 | 0.544
x1 = 1 | 862 | 855.5 | 1312 | 1276 | 0.628 | 0.553

CCCO [propan-1-ol]
[1]
Settings | mass density [kg/m3] | speed of sound [m/s] | viscosity [mPa·s]
298.15 K | 799.6 | 1213 | 2.042
308.15 K | 792 | 1182 | 1.565

CCCO [propan-1-ol] + CCc1ccccc1
[2], x2 = 0
Settings | mass density [kg/m3] | speed of sound [m/s] | viscosity [mPa·s]
298.15 K | 799.6 | 1213 | 2.042
308.15 K | 792 | 1182 | 1.565
